The values that follow come from US7335481B2, “Methods of identifying compounds that affect a fatty acid cell-surface receptor” (priority 2002, dated 2008).

In test [1] the target is T1, FFAR (R10; GPR40) (Homo sapiens, UniProt O14842).
T1 construct: expressed in transfected cells; host or cells: HFF11 reporter cells (HeLa-based), line HFF11.pR10
Nature of the test: HFF11 reporter cell assay, HFF11.pR10 cells expressing FFAR. The class given is cell-based. On the set-up: response of the R10 reporter cell line in the initial screening: dose or concentration left out as unconfirmed. To be noted: for activation of FFAR: result in words; for response of the R10 reporter cell line in the initial screening: FIG. 1a/1b. The method, then: Construction of the HFF11 reporter cell lines (successor of the previously described HeLa based cell line, HF1) expressing the orphan GPCRs studied was performed as earlier reported. (Co-pending U.S. application Ser. No. 09/946,334 filed Sep. 21, 2001; Kotarsky et al. 2001.) They contain the reporter plasmid, pcFUS3, where the original promoter region has been extended by 6 NFkB and 6 STAT elements. (Co-pending U.S. application Ser. No. 09/946,334 filed Sep. 21, 2001; Kotarsky et al., unpublished.) On day 1, HFF11 reporter cells, with or without the test […] receptor, were seeded into 96-well plates at 20,000 cells per well in 100 μl growth medium. On day 3, the medium was removed and replaced by 90 μl serum-free medium. Substances (e.g., compounds) and controls were added in the appropriate concentrations 24 h later. Stimulations were performed at 37 degrees C. for 7 h. Cell lysates were assayed in a BMG Lumistar Galaxy luminometer as previously described. (Kotarsky et al., 2001.) Statistical analysis of the drug concentration-response data was carried out with the GraphPad PRISM software package. In the initial screening, reporter cell lines, with or without recombinant test receptors, were challenged with FFAs, such as AA and LA, at […]. Ten cell lines expressing ten “orphan receptors” (one receptor per cell line) were screened. The expressed receptors were labeled R1-R10.

Another test deals with orphan receptors R1-R9. Put plainly: HFF11 reporter cell initial screening on the other orphan receptors. The class given is cell-based, human. On the set-up: dose or concentration left out as unconfirmed. The note with it: data not shown. The text has this:
Taken together, this prompted an investigation of these FFAs using a screening approach aimed at identifying potential surface receptors. We used a highly sensitive reporter system (Kotarsky et al., 2001) expressing each of ten different putative human heptahelix receptors, for which the endogenous activating ligands were still unknown (i.e., “orphan receptors”), was used. The receptor sequences were selected from GenBank, based on a reasonably high sequence homology to the receptors for leukotriene B4 (an AA derivative), previously cloned. (Owman et al., 1996; Tryselius et al., 2000.)
Construction of the HFF11 reporter cell lines (successor of the previously described HeLa based cell line, HF1) expressing the orphan GPCRs studied was performed as earlier reported. (Co-pending U.S. application Ser. No. 09/946,334 filed Sep. 21, 2001; Kotarsky et al. 2001.) They contain the reporter plasmid, pcFUS3, where the original promoter region has been extended by 6 NFkB and 6 STAT elements. (Co-pending U.S. application Ser. No. 09/946,334 filed Sep. 21, 2001; Kotarsky et al., unpublished.) On day 1, HFF11 reporter cells, with or without the test heptahelix receptor, were seeded into 96-well plates at 20,000 cells per well in 100 μl growth medium. On day 3, the medium was removed and replaced by 90 μl serum-free medium. […]

For test [2], the target named is T1, FFAR (R10; GPR40). Put plainly: Aequorin reporter assay (calcium release) in CHO and HeLa cells transiently transfected with R10. It is filed as cell-based. The note with it: CHO and HeLa cells co-transfected with R10 and aequorin, versus sham-transfected cells, FIG. 2. On the procedure:
Cells were seeded the day before transfection in a 6-well plate (400,000 cells/well). Then, 0.8 μg of PCDM.AEQ reporter plasmid (Button et al., 1993.) and 1 μg pIRESpuro.R10 receptor plasmid, or pcEGFP for controls, were mixed with 100 μl OptiMEM containing 5 μl per transfection of PLUS reagent. After 15 min., 100 μl OptiMEM and 9 μl (HeLa cells) or 6 μl (CHO cells) of lipofectamine were added and incubated for another 15 min. Then, 800 μl OptiMEM were added, and the cells were washed and incubated with the transfection solution for 5 h. Two days after transfection, cells were loaded with 10 μM coelenterazine and injected into a 96-well plate containing test or control (vehicle) substances. Light emission was recorded for 1 min in a BMG Lumistar Galaxy luminometer and normalized to total emission using […] 100 mM CaCl2 for each well.
Activation of receptor R10 by LA was confirmed by stimulation in two different cell lines, CHO and HeLa, transiently co-transfected with expression vectors containing the R10 ORF (i.e., the gene encoding FFAR) and the calcium-activated photoprotein, aequorin. […] (FIG. 2.)
On the technique in general: In a reporter assay the amount or activity of a reporter protein is the signal.

[3] abbreviates: FFAR response to free fatty acids, HFF11.pR10 reporter cell line, read-out: Mean EC50.
Setting [4] is: HFF11 reporter cells expressing FFAR.

Read-outs that look alike come from different tables or passages of the source.

What is called EC50 is the concentration at which the effect is half-maximal.

T1 sequence (O14842 whole entry): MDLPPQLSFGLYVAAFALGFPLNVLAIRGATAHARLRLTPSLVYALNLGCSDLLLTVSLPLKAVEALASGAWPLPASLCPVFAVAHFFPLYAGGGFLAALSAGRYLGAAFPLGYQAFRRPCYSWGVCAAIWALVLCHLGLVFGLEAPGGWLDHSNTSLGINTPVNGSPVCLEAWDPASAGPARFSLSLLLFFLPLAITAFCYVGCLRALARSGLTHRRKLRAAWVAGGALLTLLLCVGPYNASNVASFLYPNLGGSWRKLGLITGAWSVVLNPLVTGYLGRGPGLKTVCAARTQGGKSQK

For `CCCCCCC(O)CCCCCCCCCCC(=O)O` (stereo not drawn) [Hydroxystearic acid, 12-hydroxyoctadecanoic acid], the EC50 at FFAR (R10; GPR40) [1] (setting [3]) worked out at 8 µM.
For the compound `CC1(COc2ccc(CC3SC(=O)NC3=O)cc2)CCCCC1` (racemic) [Ciglitazone, (±)-5-[4-(1-methylcyclohexylmethoxy)-benzyl]thiazolidine-2,4-dione], the “activation of FFAR” value at FFAR (R10; GPR40) [1] (setting [4]) is recorded as “strongly activated FFAR”.
`CCCCCCCCCCCC(=O)O` [Lauric acid, Dodecanoic acid]: the EC50 at FFAR (R10; GPR40) [1] (setting [3]) came out at 22.5 µM.
With `CC(C)(CCCCCCCCCCC(C)(C)CC(=O)O)CC(=O)O` [MEDICA 16, 3,3,14,14-tetramethyl-hexadecanedioic acid], the “activation of FFAR” value on FFAR (R10; GPR40) [1] (setting [4]) was “strongly activated FFAR”.
Turning to `CCCCCCCCCC(=O)O` [Capric acid, Decanoic acid], at FFAR (R10; GPR40) [1] (concentration response curves, HFF11 reporter cells expressing FFAR, FIG. 3, read-out: EC50), the EC50 amounted to 12.6 µM.
For `CCCCC/C=C\C=C\CCCCCCCCC(=O)O` [CLA, trans-10, cis-12-octadecanoic acid], the EC50 at FFAR (R10; GPR40) [1] (setting [3]) came to 77.3 µM. In addition, the “activation of FFAR” value at FFAR (R10; GPR40) [1] (setting [4]) is on record as “activated FFAR”.
The like results for `CCCCC/C=C\C=C\C(O)CCCCCCCC(=O)O` (racemic) [9-HODE, (±)-9-hydroxy, trans-10, cis-12-octadecanoic acid] were, in that order, 3.4 µM and “activated FFAR”.
As for `CCCCC/C=C\C/C=C\C/C=C\C/C=C\CCCC(=O)O` [arachidonic acid], the “response of the R10 reporter cell line in the initial screening” value at FFAR (R10; GPR40) [1] is recorded as “no effect”. Moreover, in the test with orphan receptors R1-R9, the “effect on test receptors R1-R9 in the initial screening” value is recorded as “no effect”.
As for `COc1ccc(Cl)cc1C(=O)NCCc1ccc(S(=O)(=O)NC(=O)NC2CCCCC2)cc1` [Glibenclamid, Glibenclamide], the “activation of FFAR” value on FFAR (R10; GPR40) [1] (setting [4]) is “inactive”.
As for `CCCC/C=C/CCCCCCCC(=O)O` [Myristelaidic acid, trans-9-tetradecenoic acid], at FFAR (R10; GPR40) [1] (setting [3]), the EC50 was 25 µM.
Consider `CCCCC/C=C\C/C=C\CCCCCCCCCC(=O)O` [EDA, cis-11, cis-14- -eicosadienoic acid], for which, at FFAR (R10; GPR40) [1] (setting [3]), the EC50 worked out at 20 µM.
On to `CCCCC/C=C\C/C=C\C/C=C\CCCCC(=O)O` [γ-Linoleic acid, cis-6, cis-9, cis-12-octadecanoic acid], for which the EC50 at FFAR (R10; GPR40) [1] (setting [3]) worked out at 28.5 µM.
In the case of `CCCCCCCCCCCCCCCCCC(=O)O` [stearic acid], at FFAR (R10; GPR40) [1] (setting [4]), the “activation of FFAR” value was “able to activate the receptor”.
For `CCCCCCC(O)C/C=C/CCCCCCCC(=O)O` (stereo not drawn) [Ricinelaidic acid, 12-hydroxy, trans 9-octadecanoic acid], the EC50 at FFAR (R10; GPR40) [1] (setting [3]) worked out at 20 µM.
The same measure, in the same setting: then `CCCCCCC(O)C/C=C\CCCCCCCC(=O)O` (stereo not drawn) [Ricinoleic acid, 12-hydroxy, cis 9-octadecenoic acid], with 8 µM; and `CCCCCC/C=C\CCCCCCCC(=O)O` [Palmitoleic acid, hexadecenoic acid], with 100 µM.
Same read-out and setting: then `CCC=CCC=CCC=CCC=CCCCCC(=O)O` [Stearidonic acid, cis-6, cis-9, cis-12-15-octadecanoic acid], with 8.9 µM; and `CCCCCCCCCCCCCCCC(=O)O` [Palmitic acid, Hexadecanoic acid], with 143 µM.
`CCOC(=O)C(C)(C)Oc1ccc(Cl)cc1` [Clofibrate]: the “activation of FFAR” value at FFAR (R10; GPR40) [1] (setting [4]) is “inactive”.
As to `CCCCCCCC/C=C\CCCCCCCC(=O)O` [Oleic acid, cis-9-octadecanoic acid], the EC50 on FFAR (R10; GPR40) [1] (setting [3]) worked out at 123 µM.
Take `CCCCC/C=C\C/C=C\CCCCCCCC(=O)O` [Linoleic acid, cis-9, cis-12,-octadecanoic acid]: the “calcium-mediated luminescence upon stimulation” value on FFAR (R10; GPR40) [2] was “calcium-mediated luminescence flash”. For the same compound, the EC50 on FFAR (R10; GPR40) [1] (setting [3]) is 38.4 µM. At FFAR (R10; GPR40) [1], the “response of the R10 reporter cell line in the initial screening” value is “strong and reproducible response”.
Consider `CCCCCCCC/C=C/CCCCCCCC(=O)O` [Elaidic acid, trans-9-octadecanoic acid], for which the EC50 on FFAR (R10; GPR40) [1] (setting [3]) amounted to 120 µM.
